Results reported in US8927463B2, “Sensitive high throughput method for DNA damage and repair” (priority 2013, dated 2015).
“Also recorded” adds a separate entry of the source. Where two headings read alike, the source gives them in different places.

Tested on: dsDNA
Experiment: Real-time DNA melting assay (PicoGreen/ROX melting curves)
From the text: Components of this assay include 1) a reaction vessel free from DNase and RNase, 2) a dsDNA-specific dye, 3) a reference dye 4) dsDNA, and 5) the genotoxicant(s). […] As the sample is heated in the real-time thermocycler, the dsDNA melts becoming single-stranded. Single-stranded DNA no longer supports PicoGreen fluorescence, thus the relative amount of PicoGreen to ROX fluorescence declines proportionately to the loss of DNA base-pairing. As will be understood by the skilled artisan upon reading this disclosure, alternative fluorometric dyes or spectrophotometric dyes can be used in the method of the present invention.
In one embodiment, the raw dsDNA-specific fluorescence is normalized to the corresponding reference fluorescence at each temperature point to correct for decreased dye fluorescence resulting directly from the increasing solution temperature. This normalized fluorescence is then graphed as a function of temperature to produce the melting curve. Initial fluorescence from this curve is used to determine the extent of double-strand breakage. The first derivative of this melting curve is then plotted and used to determine both the initial melting temperature and the melting rate across the entire temperature gradient. […] A schematic representation of the typical melting curves is shown in FIG. 1 wherein, with increasing pH, salinity, or temperature, DNA dissociation increases resulting in a decrease in relative fluorescence.
The ability to detect DNA-damaging agents was first examined under conditions under which only the pharmaceutical agent was allowed to interact with the dsDNA.
(§1) Samples were analyzed using an ABI 7300 real time thermocycler over a temperature range of 4° C. to 99° C. Data is presented as PicoGreen fluorescence normalized to ROX.
as §1
Samples were analyzed over a temperature range of 4° C. to 99° C. using an ABI 7300 real time thermocycler. Data is presented as PicoGreen fluorescence normalized to ROX. […] When single strand breaks are in close proximity, double strand breaks can result.

[1] = dsDNA 1,000 ng/ml treated with increasing concentrations of compound, PicoGreen normalized to ROX, 4° C. to 99° C.

## C[C@]12CC[C@@H]3c4cc(O)c(O)cc4CC[C@H]3[C@@H]1CC[C@@H]2O [2-hydroxyestradiol]
[1]
  initial fluorescence: increase in initial fluorescence
  initial melting slope: increase in initial melting slope

## CC[C@@]1(O)C(=O)OCc2c1cc1n(c2=O)Cc2cc3ccccc3nc2-1 [camptothecin]
dsDNA 1,000 ng/ml treated with non-genotoxic concentrations, PicoGreen normalized to ROX, 4° C. to 99° C.
  effect on DNA melting curves: lack of effect; also recorded: does not alter DNA melting

## CC[C@H](c1ccc(O)cc1)[C@@H](CC)c1ccc(O)cc1 [hexestrol]
  initial melting temperature: decrease in the initial melting temperature

## O=C1C(=O)c2ccccc2-c2ccccc21 [phenanthrenequinone]
dsDNA 1,000 ng/ml treated with increasing concentrations of compound, PicoGreen fluorescence normalized to ROX, 4° C. to 99° C.
  initial melting temperature: increase in the initial melting temperature
